Tests used:
[1] = tested on: vessels of the ciliary body (haemato-ophthalmic barrier); test: Permeability of the haemato-ophthalmic barrier induced by histamine (corneal lens method, Evans Blue); format: in vivo, New Zealand rabbit; conditions: for Permeability of the vessels of the ciliary body caused by histamine (in words) / Effects, significance (in words): 100 mg/kg by gavage; for Effects, significance (in words): after 2 and 4 hours; for Evans Blue in aqueous humour, m ± sd / Percentage variation of Evans Blue relative to time 0: 100 mg/kg os
Procedure: The experiment was carried out on […] New Zealand rabbits, average body weight 2.5 kg, divided into three groups of ten animals each.
The vasal permeability was measured by the dye method: 1 ml of Evans Blue in a concentration of 0.5% was injected into the marginal vein of the ear. After 10 min a soft corneal lens embedded in a 2% solution of histamine hydrochloride was applied for 30 min to the left eye.
The left eye was subjected to paracentesis and a sample of aqueous humour was taken.
Immediately after, the substances were given by gavage at the dose of 100 mg/kg. Two or four hours after administration a lens embedded with histamine as described before was applied for 30 min on the right eye. Paracentesis was carried out and aqueous humor was taken.
The quantity of Evans Blue in the aqueous humor was evaluated as described in 1(i).

[2] = Acute toxicity in rats, stomach probe; format: in vivo; conditions: for Toxic symptoms or death (in words): doses up to 6 g/kg; for LD50: rat, in vivo, po
Procedure: (§1) This was tested on mice and rats after administration by stomach probe. […] The LD 50 must therefore be above 6 g/kg.

[3] = Acute toxicity in mice, stomach probe; format: in vivo; conditions: for Toxic symptoms or death (in words): doses up to 6 g/kg; for LD50: mouse, in vivo, po
Procedure: as §1

[4] = tested on: vessels of the ciliary body (haemato-ophthalmic barrier); test: Permeability of the haemato-ophthalmic barrier induced by paracentesis in the rabbit (Evans Blue dye method); format: in vivo, New Zealand albino rabbit; conditions: for Amount of dye coming out of the vessels of the ciliary body (in words): single dose of 100 or 200 mg/kg, two or four hours after administration
Procedure: (§2) The effect on the permeability of the haemato-ophthalmic barrier was measured by inducing an increase in the permeability of the vessels of the ciliary body, either by paracentesis or by instillation of sodium hydroxide into the conjunctival sac. The reduction in permeability induced by oral administration of the products under examination was then measured.
The experiment was carried out on 80 New Zealand albino rabbits, average body weight 2.8 kg, divided into eight groups each of ten animals.
The vasal permeability was measured by the dye method: 1 ml of Evans Blue in a concentration of 0.5% was injected into the marginal vein of the auricle.
After 10 minutes the left eye was subjected to paracentesis and after 12 minutes a sample of aqueous humour was taken. The quantity of Evans Blue in the sampled aqueous humour was used to assess the permeability of the haemato-ophthalmic barrier. Immediately afterwards, compounds I and II were administered in doses of 100 or 200 mg/kg by stomach probe.
Two or four hours after administration, paracentesis was carried out on the right eye and after 12 minutes a sample of aqueous humour was taken.
The quantity of Evans Blue in the aqueous humour was evaluated by spectrophotometer reading at 623 nm. […]

[5] = tested on: conjunctiva, cornea, iris, crystalline lens, vitreous humour and retina; test: Ocular tolerability after oral administration; format: in vivo, New Zealand rabbit; conditions: single (200 mg/kg) or repeated (100 mg/kg, 7 days) oral administration
Procedure: The ocular tolerability of compounds I and II was measured in New Zealand rabbits on the anterior segment (conjunctiva, cornea, iris and crystalline lens) and on the posterior segment (vitreous humour and retina) after oral administration, local application and intra-ocular injection.
Both products were administered by stomach probe, either in a single dose of 200 mg/kg or in repeated doses of 100 mg/kg for 7 days. Surveys were made before and 1, 2 and 4 hours after acute administration, on the third and seventh days after repeated administration and 5 days after suspension of treatment.

[6] = tested on: vessels of the ciliary body (haemato-ophthalmic barrier); test: Permeability of the haemato-ophthalmic barrier induced by NaOH in the rabbit (Evans Blue); format: in vivo, New Zealand rabbit; conditions: seven days; for Percentage variation of Evans Blue: vs controls; for Reduction in permeability, significance (in words): 100 mg/kg os; for Permeability of the vessels of the ciliary body caused by the irritating agent (in words): 50 or 100 mg/kg os
Procedure: as §2
The experiment was carried out on 50 New Zealand rabbits, average body weight 2.2 kg. The substance was administered once a day for seven days in doses of 50 or 100 mg/kg. A control group was treated with tap water.
Thirty minutes after the last administration, 1 ml of a 0.5% solution of Evans Blue was administered in the marginal vein of the ear. After 30 minutes, inflammation of the eye tissue was produced by instilling two drops of 0.25N sodium hydroxide in the conjunctival sac. Two hours later the animal was anesthesized and a sample of aqueous humour was taken in order to measure the proportion of dye.

[7] = 100 mg/kg os, 1 administration, 2 hours
[8] = 100 mg/kg os, 1 administration, 4 hours
[9] = 100 mg/kg os, 7 administrations, 24 hours after last
[10] = 200 mg/kg os, 1 administration, 2 hours
[11] = 200 mg/kg os, 1 administration, 4 hours

SMILES	Permeability of the vessels of the ciliary body caused by histamine (in words) [1]	Effects, significance (in words) [1]	Evans Blue in aqueous humour, m ± sd ([1]; 2 hours) [µg/mL]	Percentage variation of Evans Blue relative to time 0 ([1]; 2 hours) [%]	Evans Blue in aqueous humour, m ± sd ([1]; 4 hours) [µg/mL]	Percentage variation of Evans Blue relative to time 0 ([1]; 4 hours) [%]	Toxic symptoms or death (in words) [2]	LD50 [2] [mg/kg]	Toxic symptoms or death (in words) [3]	LD50 [3] [mg/kg]	Evans Blue in aqueous humour, m ± s.d. [4, 7] [µg/mL]	Percentage variation of Evans Blue relative to time 0 [4, 7] [%]	Evans Blue in aqueous humour, m ± s.d. [4, 8] [µg/mL]	Percentage variation of Evans Blue relative to time 0 [4, 8] [%]	Evans Blue in aqueous humour, m ± s.d. [4, 9] [µg/mL]	Percentage variation of Evans Blue relative to time 0 [4, 9] [%]	Evans Blue in aqueous humour, m ± s.d. [4, 10] [µg/mL]	Percentage variation of Evans Blue relative to time 0 [4, 10] [%]	Evans Blue in aqueous humour, m ± s.d. [4, 11] [µg/mL]	Percentage variation of Evans Blue relative to time 0 [4, 11] [%]	further results
Oc1ccc(-c2[o+]c3cc(O)cc(O)c3cc2O)cc1 [Compound I, pelargonidin]	reduced permeability of the vessels of the ciliary body caused by histamine	statistically significant compared with the basal values	86.2 ± 6.1	-19.0	75.9 ± 10.3	-29.9	did not cause toxic symptoms or death	> 6000	did not cause toxic symptoms or death	> 6000	34.9 ± 8.5	-15.4	46.9 ± 17.5	-15.5	44.2 ± 11.7	-22.4	42.2 ± 15.0	-16.4	44.8 ± 20.2	-15.6	Amount of dye coming out of the vessels of the ciliary body (in words) [4]: reduced in a statistically significant manner; Modifications in ocular structures (in words) [5]: did not induce modifications in the conjunctive, cornea, iris, crystalline lens, vitrous humour or retina; Evans Blue, m ± s.e. ([6]; 50 mg/kg/day os): 5.8 ± 0.8 µg/mL; Percentage variation of Evans Blue ([6]; 50 mg/kg/day os): -2%; Reduction in permeability, significance (in words) [6]: statistically significant compared with the controls; Evans Blue, m ± s.e. ([6]; 100 mg/kg/day os): 3.5 ± 0.6 µg/mL; Percentage variation of Evans Blue ([6]; 100 mg/kg/day os): -40%; Permeability of the vessels of the ciliary body caused by the irritating agent (in words) [6]: dose-dependent reduction in the permeability of the vessels of the ciliary body
Oc1cc(O)c2cc(O)c(-c3cc(O)c(O)c(O)c3)[o+]c2c1 [Compound II, delphinidin]	reduced permeability of the vessels of the ciliary body caused by histamine	statistically significant compared with the basal values	82.0 ± 7.0	-25.3	68.8 ± 8.7	-31.7	did not cause toxic symptoms or death	> 6000	did not cause toxic symptoms or death	> 6000	41.5 ± 7.9	-14.1	45.6 ± 9.7	-14.9	42.5 ± 13.3	-20.8	45.1 ± 10.3	-15.1	45.9 ± 12.2	-15.1	Amount of dye coming out of the vessels of the ciliary body (in words) [4]: reduced in a statistically significant manner; Modifications in ocular structures (in words) [5]: did not induce modifications in the conjunctive, cornea, iris, crystalline lens, vitrous humour or retina; Evans Blue, m ± s.e. ([6]; 50 mg/kg/day os): 5.1 ± 0.7 µg/mL; Percentage variation of Evans Blue ([6]; 50 mg/kg/day os): -14%; Reduction in permeability, significance (in words) [6]: statistically significant compared with the controls; Evans Blue, m ± s.e. ([6]; 100 mg/kg/day os): 3.2 ± 0.4 µg/mL; Percentage variation of Evans Blue ([6]; 100 mg/kg/day os): -45%; Permeability of the vessels of the ciliary body caused by the irritating agent (in words) [6]: dose-dependent reduction in the permeability of the vessels of the ciliary body
